In general, MIC refers to the smallest concentration in the dilution series that meets the test's criterion for growth inhibition.

≈ marks a conversion by molar mass, not a printed value.

In assay [1] the test system is B. cepacia ATCC 25608. Description: Susceptibility testing (MIC at 35° C.). In kind it is cell-based. To be noted: Burkholderia cepacia, ATCC25608. As for the experimental part:
(§1) From a previous susceptibility testing experiment, the liposomal test batches and control tobramycin MIC values are shown in Table 5 below. The time-kill test is conducted using the test agents shown in bold print in Table 5: [table]

For assay [2], the system named is P. aeruginosa ATCC 27853. The assay is described as follows: Susceptibility testing (MIC at 35° C.). In kind it is cell-based. The note with it: Pseudomonas aeruginosa, ATCC27853. The protocol: as §1
The subject of assay [3] is P. aeruginosa MMX 1609. Description: Susceptibility testing (MIC at 35° C.). Format: cell-based. To be noted: Pseudomonas aeruginosa, MMX1609. As for the experimental part: as §1
The subject of assay [4] is B. cepacia ATCC 25608. To be noted: at 35° C.; cited from earlier work.
Assay [5] deals with P. aeruginosa MMX 1609. The note with it: at 35° C.; cited from earlier work.
Assay [6] relates to P. aeruginosa ATCC 27853. To be noted: at 35° C.; cited from earlier work.

With `NC[C@H]1O[C@H](O[C@H]2[C@H](O)[C@@H](O[C@H]3O[C@H](CO)[C@@H](O)[C@H](N)[C@H]3O)[C@H](N)C[C@@H]2N)[C@H](N)C[C@@H]1O` [Free tobramycin (Sigma), tobramycin], the MIC was over 64 µg/mL in assay [1], 0.5 µg/mL (≈ 1.07 µM) in assay [2] and 0.5 µg/mL (≈ 1.07 µM) in assay [3].

On to `NC[C@H]1O[C@H](O[C@H]2[C@H](O)[C@@H](O[C@H]3O[C@H](CO)[C@@H](O)[C@H](N)[C@H]3O)[C@H](N)C[C@@H]2N)[C@H](N)C[C@@H]1O` [tobramycin], for which the “MIC, CLSI QC range” value is “(0.12-1) μg/mL” in assay [4], “(0.25-1) μg/mL” in assay [5] and 0.25 to 1 µg/mL in assay [6].

Source of the values: patent US20110014273A1, “Method of Treating BCC” (priority 2009, published 2011).
